Test results as given in patent US12655116B2, “Substituted isophthalic acid diamides” (Bayer Aktiengesellschaft, priority 2020, dated 2026).

How the values were obtained:
AMARE [1] = assay: Post-emergence herbicidal action against AMARE; assay type: in vivo, Amaranthus retroflexus; settings: 20 g/ha, visual assessment about 3 weeks after treatment, 100% = plants have died, 0% = like control plants
Procedure, shortened: (§1)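 Herbicidal action is a visual percentage rating (0% = as untreated control, 100% = plants dead) made roughly 3 weeks after treatment. Plants were grown in sandy loam in the greenhouse and treated at the one-leaf stage, 2 to 3 weeks post-sowing. Treatment was a foliar spray of wettable-powder or emulsion-concentrate formulations at 600 to 800 l/ha water plus 0.2% wetting agent.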

LOLRI = assay: Pre-emergence herbicidal action against LOLRI; assay type: in vivo, Lolium rigidum; settings: 80 g/ha
Procedure, shortened: (§2)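 Sandy loam pots, seeds covered with soil, then surface-treated with WP or EC formulations at 600–800 l/ha water plus 0.2% wetting agent. Greenhouse, 3 weeks. Percent damage vs untreated controls.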

PHBPU [2] = assay: Pre-emergence herbicidal action against PHBPU; assay type: in vivo, Pharbitis purpurea; settings: dosage 80 g/ha
Procedure, shortened: as §2

SETVI [3] = assay: Pre-emergence herbicidal action against SETVI; assay type: in vivo, Setaria viridis; settings: dosage 80 g/ha
Procedure, shortened: as §2

VIOTR [4] = assay: Pre-emergence herbicidal action against VIOTR; assay type: in vivo, Viola tricolor
Procedure, shortened: as §2

DIGSA [5] = assay: Post-emergence herbicidal action against DIGSA; assay type: in vivo, Digitaria sanguinalis; settings: for Post-emergence action against DIGSA: 20 g/ha
Procedure, shortened: as §1

ABUTH [6] = assay: Post-emergence herbicidal action against ABUTH; assay type: in vivo, Abutilon theophrasti; settings: visual assessment about 3 weeks after treatment vs untreated controls
Procedure, shortened: as §1

DIGSA [7] = assay: Pre-emergence herbicidal action against DIGSA; assay type: in vivo, Digitaria sanguinalis
Procedure, shortened: as §2

STEME = assay: Pre-emergence herbicidal action against STEME; assay type: in vivo, Stellaria media
Procedure, shortened: as §2

AMARE [8] = assay: Pre-emergence herbicidal action against AMARE; assay type: in vivo, Amaranthus retroflexus
Procedure, shortened: as §2

VERPE [9] = assay: Pre-emergence herbicidal action against VERPE; assay type: in vivo, Veronica persica
Procedure, shortened: as §2

VIOTR [10] = assay: Post-emergence herbicidal action against VIOTR; assay type: in vivo, Viola tricolor
Procedure, shortened: as §1

ALOMY [11] = assay: Pre-emergence herbicidal action against ALOMY; assay type: in vivo, Alopecurus myosuroides; settings: 80 g/ha, pre-emergence, scored visually after 3 weeks vs untreated controls (100% = plants have died, 0% = like control plants)
Procedure, shortened: as §2

ABUTH [12] = assay: Pre-emergence herbicidal action against ABUTH; assay type: in vivo, Abutilon theophrasti; settings: for Pre-emergence action against ABUTH (herbicidal activity): 80 g/ha, scored visually after 3 weeks vs untreated controls (100% = plants have died, 0% = like control plants); for Pre-emergence action against ABUTH (herbicidal activity in percent): dosage 20 g/ha, scored visually after 3 weeks vs untreated controls, 100% = plants have died, 0% = like control plants
Procedure, shortened: as §2

AVEFA = assay: Pre-emergence herbicidal action against AVEFA; assay type: in vivo, Avena fatua; settings: 80 g/ha, pre-emergence
Procedure, shortened: as §2

MATIN [13] = assay: Pre-emergence herbicidal action against MATIN; assay type: in vivo, Matricaria inodora
Procedure, shortened: as §2

ECHCG [14] = assay: Pre-emergence herbicidal action against ECHCG; assay type: in vivo, Echinochloa crus-galli; settings: 80 g/ha
Procedure, shortened: as §2

ECHCG [15] = assay: Post-emergence herbicidal action against ECHCG; assay type: in vivo, Echinochloa crus-galli; settings: dosage 20 g/ha
Procedure, shortened: as §1

PHBPU [16] = assay: Post-emergence herbicidal action against PHBPU; assay type: in vivo, Pharbitis purpurea
Procedure, shortened: as §1

SETVI [17] = assay: Post-emergence herbicidal action against SETVI; assay type: in vivo, Setaria viridis; settings: dosage 20 g/ha
Procedure, shortened: as §1

POLCO = assay: Pre-emergence herbicidal action against POLCO; assay type: in vivo, Polygonum convolvulus; settings: dosage 80 g/ha
Procedure, shortened: as §2

MATIN [18] = assay: Post-emergence herbicidal action against MATIN; assay type: in vivo, Matricaria inodora; settings: dosage 20 g/ha
Procedure, shortened: as §1

ALOMY [19] = assay: Post-emergence herbicidal action against ALOMY; assay type: in vivo, Alopecurus myosuroides; settings: dosage 20 g/ha, visual assessment about 3 weeks after treatment vs untreated controls
Procedure, shortened: as §1

VERPE [20] = assay: Post-emergence herbicidal action against VERPE; assay type: in vivo, Veronica persica; settings: 20 g/ha
Procedure, shortened: as §1

[21] = 20 g/ha, scored visually after 3 weeks vs untreated controls, 100% = plants have died, 0% = like control plants
[22] = 80 g/ha, scored visually after 3 weeks vs untreated controls (100% = plants have died, 0% = like control plants)

SMILES	Post-emergence action at 20 g/ha against AMARE in % (AMARE [1])	Pre-emergence action against LOLRI in % (LOLRI)	Pre-emergence action against PHBPU in % (PHBPU [2])	Pre-emergence action against SETVI in % (SETVI [3])	Pre-emergence action against VIOTR in % (VIOTR [4]; dosage 20 g/ha)	Pre-emergence action against VIOTR in % (VIOTR [4]; dosage 80 g/ha)	Post-emergence action against DIGSA (DIGSA [5])	Post-emergence action against ABUTH in % (ABUTH [6]; dosage 5 g/ha)	Post-emergence action against ABUTH in % (ABUTH [6]; dosage 20 g/ha)	Pre-emergence action against DIGSA in % (DIGSA [7]; dosage 20 g/ha)	Pre-emergence action against DIGSA in % (DIGSA [7]; dosage 80 g/ha)	Pre-emergence action against AMARE in % (AMARE [8]; [21])	Pre-emergence action against AMARE in % (AMARE [8]; [22])	Pre-emergence action against VERPE in % (VERPE [9]; dosage 80 g/ha)	Pre-emergence action against ALOMY (herbicidal activity) (ALOMY [11])	Pre-emergence action against ABUTH (herbicidal activity) (ABUTH [12])	Pre-emergence action against ABUTH (herbicidal activity in percent) (ABUTH [12])	Pre-emergence action against AVEFA in % (AVEFA)	Pre-emergence action against MATIN in % (MATIN [13]; dosage 20 g/ha)	Pre-emergence action against MATIN in % (MATIN [13]; dosage 80 g/ha)	further results
CCNC(=O)c1c(C(F)F)ccc(C(=O)Nc2nnnn2CC)c1C [Example 2-45]	100%	80%	80%	100%	90%	100%	80%	80%	80%	90%	100%	100%	100%	90%	90%	100%	80%	100%	90%	100%	Pre-emergence action against STEME in % (STEME; dosage 20 g/ha): 90%; Pre-emergence action against STEME in % (STEME; dosage 80 g/ha): 100%; Post-emergence action against VIOTR in % (VIOTR [10]; 5 g/ha): 80%; Post-emergence action against VIOTR in % (VIOTR [10]; 20 g/ha): 100%; Pre-emergence action against ECHCG in % (ECHCG [14]): 100%; Post-emergence action against ECHCG in % (ECHCG [15]): 80%; Post-emergence action against PHBPU in % (PHBPU [16]; dosage 20 g/ha): 80%; Post-emergence action against SETVI in % (SETVI [17]): 80%; Pre-emergence action against POLCO in % (POLCO): 90%; Post-emergence action against MATIN in % (MATIN [18]): 80%
CCn1nnnc1NC(=O)c1ccc(C(F)F)c(C(=O)NC(C)C2CC2)c1C (stereo not shown) [Example 2-339]	90%	80%	80%	100%	100%	100%	90%	80%	80%	100%	100%	100%	100%	100%	90%	100%	100%	80%	100%	100%	Post-emergence action against DIGSA in % (DIGSA [5]; 5 g/ha): 80%; Pre-emergence action against VERPE in % (VERPE [9]; dosage 20 g/ha): 80%; Post-emergence action against ALOMY in % (ALOMY [19]): 80%; Pre-emergence action against ECHCG in % (ECHCG [14]): 100%; Post-emergence action against ECHCG in % (ECHCG [15]): 90%; Post-emergence action against VERPE in % (VERPE [20]): 80%; Post-emergence action against PHBPU in % (PHBPU [16]; dosage 5 g/ha): 90%; Post-emergence action against PHBPU in % (PHBPU [16]; dosage 20 g/ha): 90%; Post-emergence action against SETVI in % (SETVI [17]): 100%; Pre-emergence action against POLCO in % (POLCO): 80%; Post-emergence action against MATIN in % (MATIN [18]): 80%
